Data: PubChem BioAssay (NCI)
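Method: 48-hour compound exposure of cells in 96-well plates, five concentrations, linear interpolation of endpoints. At the TGI there is no net growth.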

What was measured:
Test in all cases: DTP human tumour cell line panel, 48 h
HOP-18 NSCLC = test system: HOP-18 NSCLC
CCRF-CEM leukemia = test system: CCRF-CEM leukemia
OVCAR-4 ovarian = test system: OVCAR-4 ovarian
SF-539 CNS = test system: SF-539 CNS
SK-MEL-2 melanoma = test system: SK-MEL-2 melanoma
K-562 leukemia = test system: K-562 leukemia
IGROV1 ovarian = test system: IGROV1 ovarian
HCT-15 colon = test system: HCT-15 colon
UACC-62 melanoma = test system: UACC-62 melanoma
SK-MEL-5 melanoma = test system: SK-MEL-5 melanoma
HT29 colon = test system: HT29 colon
MALME-3M melanoma = test system: MALME-3M melanoma
SF-268 CNS = test system: SF-268 CNS
SNB-78 CNS = test system: SNB-78 CNS
KM20L2 colon = test system: KM20L2 colon
HCC-2998 colon = test system: HCC-2998 colon
A549 NSCLC = test system: A549 NSCLC
SNB-75 CNS = test system: SNB-75 CNS
NCI-H460 lung = test system: NCI-H460 lung
M14 melanoma = test system: M14 melanoma
MOLT-4 leukemia = test system: MOLT-4 leukemia
UO-31 renal = test system: UO-31 renal
SN12C renal = test system: SN12C renal
RXF 393 renal = test system: RXF 393 renal
U251 CNS = test system: U251 CNS
COLO 205 colon = test system: COLO 205 colon
NCI-H522 lung = test system: NCI-H522 lung
KM12 colon = test system: KM12 colon
EKVX NSCLC = test system: EKVX NSCLC
A498 renal = test system: A498 renal
SNB-19 CNS = test system: SNB-19 CNS
DLD-1 colon = test system: DLD-1 colon
HCT-116 colon = test system: HCT-116 colon
SK-OV-3 ovarian = test system: SK-OV-3 ovarian
HOP-92 NSCLC = test system: HOP-92 NSCLC
LXFL 529 NSCLC = test system: LXFL 529 NSCLC
NCI-H23 lung = test system: NCI-H23 lung
M19-MEL melanoma = test system: M19-MEL melanoma
CAKI-1 renal = test system: CAKI-1 renal
DMS 273 small cell lung = test system: DMS 273 small cell lung
HL-60(TB) leukemia = test system: HL-60(TB) leukemia
TK-10 renal = test system: TK-10 renal
RPMI-8226 leukemia = test system: RPMI-8226 leukemia
ACHN renal = test system: ACHN renal
SF-295 CNS = test system: SF-295 CNS
HOP-62 NSCLC = test system: HOP-62 NSCLC
OVCAR-3 ovarian = test system: OVCAR-3 ovarian
NCI-H226 lung = test system: NCI-H226 lung
SR leukemia = test system: SR leukemia
SW-620 colon = test system: SW-620 colon
OVCAR-5 ovarian = test system: OVCAR-5 ovarian
UACC-257 melanoma = test system: UACC-257 melanoma
786-0 renal = test system: 786-0 renal
XF 498 CNS = test system: XF 498 CNS
DMS 114 small cell lung = test system: DMS 114 small cell lung
OVCAR-8 ovarian = test system: OVCAR-8 ovarian
RXF-631 renal = test system: RXF-631 renal
LOX IMVI melanoma = test system: LOX IMVI melanoma
SK-MEL-28 melanoma = test system: SK-MEL-28 melanoma

**Q.** With `CCC/C=C\C=C\C1(NS(=O)(=O)c2ccc(C)cc2)CCC(C(C)(C)C)CC1` (configuration not stated) as the compound, how does the TGI (HOP-18 NSCLC) read?
**A.** > 100 µM

**Q.** What about the TGI (CCRF-CEM leukemia) of the same compound?
**A.** 24.2 µM

**Q.** And the TGI (OVCAR-4 ovarian)?
**A.** 49.4 µM

**Q.** And the TGI (SF-539 CNS)?
**A.** > 100 µM

**Q.** And the TGI (SK-MEL-2 melanoma)?
**A.** 29 µM

**Q.** And the TGI (K-562 leukemia)?
**A.** 34.2 µM

**Q.** What about the TGI (IGROV1 ovarian) of the same compound?
**A.** 87.3 µM

**Q.** What about the TGI (HCT-15 colon) of the same compound?
**A.** 43.8 µM

**Q.** What about the TGI (UACC-62 melanoma) of the same compound?
**A.** 88.7 µM

**Q.** What about the TGI (SK-MEL-5 melanoma) of the same compound?
**A.** 33.3 µM

**Q.** What about the TGI (HT29 colon) of the same compound?
**A.** 30.2 µM

**Q.** What about the TGI (MALME-3M melanoma) of the same compound?
**A.** 47.9 µM

**Q.** And the TGI (SF-268 CNS)?
**A.** 40 µM

**Q.** What about the TGI (SNB-78 CNS) of the same compound?
**A.** 72.3 µM

**Q.** And the TGI (KM20L2 colon)?
**A.** 35.6 µM

**Q.** What about the TGI (HCC-2998 colon) of the same compound?
**A.** 34.3 µM

**Q.** What about the TGI (A549 NSCLC) of the same compound?
**A.** 38.6 µM

**Q.** What about the TGI (SNB-75 CNS) of the same compound?
**A.** 72.1 µM

**Q.** And the TGI (NCI-H460 lung)?
**A.** 36.2 µM

**Q.** And the TGI (M14 melanoma)?
**A.** 37.1 µM

**Q.** And the TGI (MOLT-4 leukemia)?
**A.** 24 µM

**Q.** And the TGI (UO-31 renal)?
**A.** 59 µM

**Q.** What about the TGI (SN12C renal) of the same compound?
**A.** 23.5 µM

**Q.** What about the TGI (RXF 393 renal) of the same compound?
**A.** 32.3 µM

**Q.** And the TGI (U251 CNS)?
**A.** 25.9 µM

**Q.** And the TGI (COLO 205 colon)?
**A.** 28.1 µM

**Q.** What about the TGI (NCI-H522 lung) of the same compound?
**A.** 12.1 µM

**Q.** What about the TGI (KM12 colon) of the same compound?
**A.** 31.9 µM

**Q.** What about the TGI (EKVX NSCLC) of the same compound?
**A.** 62.6 µM

**Q.** What about the TGI (A498 renal) of the same compound?
**A.** 46.4 µM

**Q.** And the TGI (SNB-19 CNS)?
**A.** > 100 µM

**Q.** What about the TGI (DLD-1 colon) of the same compound?
**A.** 45.3 µM

**Q.** What about the TGI (HCT-116 colon) of the same compound?
**A.** 38.3 µM

**Q.** What about the TGI (SK-OV-3 ovarian) of the same compound?
**A.** 65.2 µM

**Q.** What about the TGI (HOP-92 NSCLC) of the same compound?
**A.** 50.9 µM

**Q.** What about the TGI (LXFL 529 NSCLC) of the same compound?
**A.** > 100 µM

**Q.** What about the TGI (NCI-H23 lung) of the same compound?
**A.** 55 µM

**Q.** And the TGI (M19-MEL melanoma)?
**A.** 44.9 µM

**Q.** What about the TGI (CAKI-1 renal) of the same compound?
**A.** 61.9 µM

**Q.** What about the TGI (DMS 273 small cell lung) of the same compound?
**A.** 27.9 µM

**Q.** What about the TGI (HL-60(TB) leukemia) of the same compound?
**A.** 23.2 µM

**Q.** What about the TGI (TK-10 renal) of the same compound?
**A.** 69.9 µM

**Q.** What about the TGI (RPMI-8226 leukemia) of the same compound?
**A.** 27.2 µM

**Q.** What about the TGI (ACHN renal) of the same compound?
**A.** 53.7 µM

**Q.** What about the TGI (SF-295 CNS) of the same compound?
**A.** 51.2 µM

**Q.** And the TGI (HOP-62 NSCLC)?
**A.** 56.7 µM

**Q.** And the TGI (OVCAR-3 ovarian)?
**A.** 21.9 µM

**Q.** What about the TGI (NCI-H226 lung) of the same compound?
**A.** 38 µM

**Q.** And the TGI (SR leukemia)?
**A.** 14.8 µM

**Q.** And the TGI (SW-620 colon)?
**A.** 35.7 µM

**Q.** What about the TGI (OVCAR-5 ovarian) of the same compound?
**A.** 43.8 µM

**Q.** And the TGI (UACC-257 melanoma)?
**A.** 39 µM

**Q.** And the TGI (786-0 renal)?
**A.** 29.9 µM

**Q.** And the TGI (XF 498 CNS)?
**A.** 35.7 µM

**Q.** For `CCC1C(C#N)=C(O)NC(O)=C1C#N`, which TGI (HOP-18 NSCLC) is on record?
**A.** > 100 µM

**Q.** What about the TGI (OVCAR-4 ovarian) of the same compound?
**A.** > 100 µM

**Q.** What about the TGI (SF-539 CNS) of the same compound?
**A.** > 100 µM

**Q.** And the TGI (SK-MEL-2 melanoma)?
**A.** > 100 µM

**Q.** And the TGI (IGROV1 ovarian)?
**A.** > 100 µM

**Q.** And the TGI (HCT-15 colon)?
**A.** > 100 µM

**Q.** What about the TGI (UACC-62 melanoma) of the same compound?
**A.** > 100 µM

**Q.** What about the TGI (SK-MEL-5 melanoma) of the same compound?
**A.** > 100 µM

**Q.** What about the TGI (HT29 colon) of the same compound?
**A.** > 100 µM

**Q.** And the TGI (MALME-3M melanoma)?
**A.** > 100 µM

**Q.** And the TGI (SF-268 CNS)?
**A.** > 100 µM

**Q.** What about the TGI (SNB-78 CNS) of the same compound?
**A.** > 100 µM

**Q.** And the TGI (KM20L2 colon)?
**A.** > 100 µM

**Q.** And the TGI (HCC-2998 colon)?
**A.** > 100 µM

**Q.** And the TGI (A549 NSCLC)?
**A.** > 100 µM

**Q.** And the TGI (SNB-75 CNS)?
**A.** > 100 µM

**Q.** And the TGI (NCI-H460 lung)?
**A.** > 100 µM

**Q.** What about the TGI (M14 melanoma) of the same compound?
**A.** > 100 µM

**Q.** And the TGI (UO-31 renal)?
**A.** > 100 µM

**Q.** What about the TGI (SN12C renal) of the same compound?
**A.** > 100 µM

**Q.** What about the TGI (DMS 114 small cell lung) of the same compound?
**A.** > 100 µM

**Q.** What about the TGI (RXF 393 renal) of the same compound?
**A.** > 100 µM

**Q.** What about the TGI (U251 CNS) of the same compound?
**A.** > 100 µM

**Q.** What about the TGI (COLO 205 colon) of the same compound?
**A.** > 100 µM

**Q.** What about the TGI (NCI-H522 lung) of the same compound?
**A.** > 100 µM

**Q.** And the TGI (OVCAR-8 ovarian)?
**A.** > 100 µM

**Q.** And the TGI (KM12 colon)?
**A.** > 100 µM

**Q.** What about the TGI (EKVX NSCLC) of the same compound?
**A.** > 100 µM

**Q.** And the TGI (A498 renal)?
**A.** > 100 µM

**Q.** And the TGI (SNB-19 CNS)?
**A.** > 100 µM

**Q.** What about the TGI (DLD-1 colon) of the same compound?
**A.** > 100 µM

**Q.** And the TGI (HCT-116 colon)?
**A.** > 100 µM

**Q.** What about the TGI (RXF-631 renal) of the same compound?
**A.** > 100 µM

**Q.** What about the TGI (SK-OV-3 ovarian) of the same compound?
**A.** > 100 µM

**Q.** What about the TGI (HOP-92 NSCLC) of the same compound?
**A.** > 100 µM

**Q.** And the TGI (LXFL 529 NSCLC)?
**A.** > 100 µM

**Q.** What about the TGI (NCI-H23 lung) of the same compound?
**A.** > 100 µM

**Q.** And the TGI (M19-MEL melanoma)?
**A.** > 100 µM

**Q.** What about the TGI (CAKI-1 renal) of the same compound?
**A.** > 100 µM

**Q.** And the TGI (DMS 273 small cell lung)?
**A.** > 100 µM

**Q.** What about the TGI (TK-10 renal) of the same compound?
**A.** > 100 µM

**Q.** What about the TGI (RPMI-8226 leukemia) of the same compound?
**A.** > 100 µM

**Q.** And the TGI (ACHN renal)?
**A.** > 100 µM

**Q.** And the TGI (LOX IMVI melanoma)?
**A.** > 100 µM

**Q.** And the TGI (SF-295 CNS)?
**A.** > 100 µM

**Q.** And the TGI (HOP-62 NSCLC)?
**A.** > 100 µM

**Q.** What about the TGI (OVCAR-3 ovarian) of the same compound?
**A.** > 100 µM

**Q.** And the TGI (SK-MEL-28 melanoma)?
**A.** > 100 µM

**Q.** And the TGI (NCI-H226 lung)?
**A.** > 100 µM

**Q.** And the TGI (SW-620 colon)?
**A.** > 100 µM

**Q.** What about the TGI (OVCAR-5 ovarian) of the same compound?
**A.** > 100 µM

**Q.** And the TGI (UACC-257 melanoma)?
**A.** > 100 µM

**Q.** And the TGI (XF 498 CNS)?
**A.** > 100 µM
